Assay results taken from patent US20160120915A1, “METHODS FOR MANIPULATING IMMUNE RESPONSES BY ALTERING MICROBIOTA” (NEW YORK UNIVERSITY, priority 2013, published 2016).

Key:
[1] = system: terminal ileum; assay: PAT: ileal expression by qPCR in 6-week mice; assay type: in vivo, C57BL/6 mice; conditions: 6-week male mice, 3 pulses, vs control, p<0.05
Method: Total RNA was extracted from mouse tissues using the RNeasy Mini Kit (Qiagen), according to the manufacturer's instructions. Total RNA was reverse transcribed to cDNA using the Verso™ cDNA Synthesis Kit (Thermo Scientific). To generate standards for expression analysis of each target gene, the cDNA region of interest was PCR-amplified and the PCR product was cloned into pGEM-T easy (Promega). qPCR was performed with LightCycler 480 SYBR Green I Master mix (Roche) and run in a LightCycler 480 system (Roche). Target mRNA was normalized to GAPDH mRNA as an internal control in each sample.
C57BL/6 mice were fed a standard diet after weaning, and exposed to 3 pulses of therapeutic dose antibiotics (Amoxicillin or Tylosin), or no antibiotics, via their drinking water, all before 6 weeks of age. Mice were sacrificed at 6 weeks of age.
The distal ileum (1 cm) without Peyer's Patches was collected from each mouse for RNA extraction and kept in RNAlater (Ambion) overnight at 4° C. Samples were stored at −80° C. until RNA extraction was performed.
Panel A: Mice were exposed to 3 pulses of antibiotics (Amoxicillin or Tylosin), or no antibiotics, via breast milk or drinking water at the indicated time points. Panel B: Male mice, including 5 Control, 4 Amoxicillin, and 6 Tylosin, were fed a normal diet. They were sacrificed at 6 weeks of age and the terminal[1 cm] ileum without Peyer's Patches [TI-] was collected.
Ileal expression of T-bet and IFN-γ [Th1], GATA3 and IL-4 [Th2], Foxp3, and TGFβ1 [Treg], and RORγt, IL-17A, and IL-17F [Th17] (Control n=5, Amoxicillin n=4, Tylosin n=6) was quantitated with qPCR and normalized by GAPDH expression. Expression of T-bet and IFNγ [Th1] (p<0.05) and IL-17A and IL-17F [Th17] […] Foxp3 and RORγt were lower in Tylosin than control. This example extends the earlier observation that continuous antibiotics affect ileal immune cell populations and effectors by showing that pulses are sufficient to produce similar effects.

[2] = system: terminal ileum; assay: PAT: ileal gene expression profiling by whole genome microarray, 6-week mice; assay type: in vivo, C57BL/6 mice; conditions: 6-week PAT vs Control, T-test p<0.05 and fold change ≧1.2 or ≦0.8
Method: Ileal gene expression profiling of STAT, PAT, and control animal groups, was performed using the Affymetrix Genechip system (Affymetrix). Total RNA quality and quantity were determined using the Agilent 2100 Bioanalyser and Nanodrop ND-1000. Total RNA (100 ng) was used to prepare cDNA following the Affymetrix […] Express Kit labelling protocol (Affymetrix). Standardized array processing procedures recommended by Affymetrix were performed, including hybridization, fluidics processing and scanning of the Affymetrix MG-430 2.0 arrays. GeneSpring GX11 software (Agilent Technologies) was used to normalize the raw data (Affymetrix CEL files) by Robust Multichip Average algorithm (RMA).
1127 and 3065 reproducibly regulated genes were identified from ˜45,000 genes of the mouse genome by T-test (p<0.05) and fold change (≧1.2 or ≦0.8) in 6-week PAT (Panel A; Control vs Amoxicillin and Panel B; Control vs Tylosin), respectively (FIG. 22). DAVID analysis was performed using the regulated genes, and Gene Set Enrichment analysis (GSEA) was performed using whole gene data.
(C, n=3), amoxicillin (A, n=3), and tylosin treated mice (T, n=3).

[3] = asthma; cited from earlier work

| SMILES | ileal expression of IFNγ [Th1] [1] | ileal expression of IL-17A [Th17] [1] | ileal expression of IL-17F [Th17] [1] | ileal expression of T-bet [Th1] [1] | reproducibly regulated genes out of ~45,000 genes of the mouse genome [2] | airway hyperresponsives (AHR) [3] | neutrophilic inflammation [3] |
| --- | --- | --- | --- | --- | --- | --- | --- |
| CC1(C)S[C@@H]2[C@H](NC(=O)[C@H](N)c3ccc(O)cc3)C(=O)N2[C@H]1C(=O)O [Amoxicillin] | significantly lower | significantly lower | significantly lower | significantly lower | 1127 | – | – |
| CC[C@H]1OC(=O)[C@H](C)[C@@H](O[C@H]2C[C@@](C)(OC)[C@@H](O)[C@H](C)O2)[C@H](C)[C@@H](O[C@@H]2O[C@H](C)C[C@H](N(C)C)[C@H]2O)[C@](C)(OC)C[C@@H](C)C(=O)[C@H](C)[C@@H](O)[C@]1(C)O [clarithromycin] | – | – | – | – | – | reduced | reduced |
